{
  "source": "patent US10793568B2",
  "about": "“Hormone receptor modulators for treating metabolic conditions and disorders” (ARDELYX, INC., priority 2016, dated 2020)",
  "key": {"[1]": {"biological_target": "ligand binding domain of human FXR (Homo sapiens (Human), UniProt Q96RI1)", "sequence (Q96RI1 262-486)": "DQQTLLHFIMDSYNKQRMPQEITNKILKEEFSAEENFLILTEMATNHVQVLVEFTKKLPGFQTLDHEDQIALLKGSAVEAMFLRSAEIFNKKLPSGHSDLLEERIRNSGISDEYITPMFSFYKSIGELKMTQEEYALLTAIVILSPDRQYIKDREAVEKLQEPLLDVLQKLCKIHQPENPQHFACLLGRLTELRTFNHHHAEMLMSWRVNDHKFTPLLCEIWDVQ", "test": "FXR ligand binding assay (LanthaScreen TR-FRET, SRC2-2 peptide recruitment)", "settings": "for pEC50: -log EC50, concentration required to produce 50% activation; for Emax: read-out: % Efficacy"}, "[2]": {"biological_target": "human Farnesoid X receptor ligand-binding domain/Gal4 DNA binding domain chimera (Homo sapiens (Human), UniProt Q96RI1)", "sequence (Q96RI1 262-486, change not shown)": "as the sequence (Q96RI1 262-486) above", "sequence (P04386 1-147 partner)": "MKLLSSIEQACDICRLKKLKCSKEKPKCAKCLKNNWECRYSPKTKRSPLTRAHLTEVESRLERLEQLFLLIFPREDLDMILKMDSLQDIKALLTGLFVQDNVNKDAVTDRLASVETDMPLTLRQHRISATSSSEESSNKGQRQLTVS", "test": "Cell-based assay of FXR activation (FXR-UAS-bla HEK 293T beta-lactamase reporter)", "settings": "cellular FXR beta-lactamase reporter assay; for Emax: HEK-293T, read-out: % Efficacy", "outline": "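Readout is cleavage of the CCF4 FRET substrate (409 nm excitation, blue 447 nm signal) by beta-lactamase, expressed under UAS control after a Gal4–human FXR LBD chimera is activated in HEK 293T cells. Compounds were added as 3-fold dilutions for 16 h at 37 °C in 2% charcoal-stripped FBS medium. Curves were fit to a 3-parameter logistic equation to give pEC50, with % activation relative to GW4064.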"}, "[3]": {"settings": "extent of activation relative to GW4064"}, "[4]": {"settings": "FXR-UAS-bla HEK 293T cells, 16 h, pEC50 = -log EC50"}},
  "data": [
    {"molecule": "CCCS(=O)(=O)NC(=O)c1cc(F)c2nc(N3C[C@@H]4C[C@H]3C[C@H]4OC(=O)c3c(-c4c(Cl)cccc4Cl)noc3C3CC3)sc2c1", "note": "[Compound I-32, (1S,4S,5R)-2-{4-fluoro-6-[(propane-1-sulfonyl)carbamoyl]-1,3-benzothiazol-2-yl}-2-azabicyclo[2.2.1]heptan-5-yl 5-cyclopropyl-3-(2,6-dichlorophenyl)-1,2-oxazole-4-carboxylate]", "values": [
      {"measurement": "pEC50", "setting": "[1]", "result": 7.6},
      {"measurement": "Emax", "setting": "[1]; [3]", "result": 148, "unit": "%"},
      {"measurement": "Emax", "setting": "[2]; [3]", "result": 110, "unit": "%"},
      {"measurement": "EC50", "setting": "[2]; [4]", "result": 126, "unit": "nM"}
    ]},
    {"molecule": "O=C(NS(=O)(=O)C1CC1)c1cc(F)c2nc(N3C[C@@H]4C[C@H]3C[C@H]4OC(=O)c3c(-c4c(Cl)cccc4Cl)noc3C3CC3)sc2c1", "note": "[Compound I-33, (1S,4S,5R)-2-{6-[(cyclopropanesulfonyl)carbamoyl]-4-fluoro-1,3-benzothiazol-2-yl}-2-azabicyclo[2.2.1]heptan-5-yl 5-cyclopropyl-3-(2,6-dichlorophenyl)-1,2-oxazole-4-carboxylate]", "values": [
      {"measurement": "pEC50", "setting": "[1]", "result": 7.6},
      {"measurement": "Emax", "setting": "[1]; [3]", "result": 136, "unit": "%"},
      {"measurement": "Emax", "setting": "[2]; [3]", "result": 112, "unit": "%"},
      {"measurement": "EC50", "setting": "[2]; [4]", "result": 126, "unit": "nM"}
    ]},
    {"molecule": "CS(=O)(=O)CCNC(=O)c1ccc(N2C[C@@H]3C[C@H]2C[C@H]3OCc2c(-c3c(Cl)cccc3Cl)noc2C2CC2)cc1F", "note": "[Compound I-170, 4-[(1S,4S,5R)-5-{[5-cyclopropyl-3-(2,6-dichlorophenyl)-1,2-oxazol-4-yl]methoxy}-2-azabicyclo[2.2.1]heptan-2-yl]-2-fluoro-N-(2-methanesulfonylethyl)benzamide]", "values": [
      {"measurement": "pEC50", "setting": "[1]", "result": 9.4},
      {"measurement": "Emax", "setting": "[1]; [3]", "result": 142, "unit": "%"},
      {"measurement": "Emax", "setting": "[2]; [3]", "result": 103, "unit": "%"},
      {"measurement": "EC50", "setting": "[2]; [4]", "result": 1.26, "unit": "nM"}
    ]},
    {"molecule": "COc1ccc(-c2noc(C3CC3)c2CO[C@@H]2C[C@@H]3C[C@H]2CN3c2nc3c(F)cc(C(=O)O)cc3s2)cc1", "note": "[Compound I-290, 2-((1S,4S,5R)-5-((5-cyclopropyl-3-(4-methoxyphenyl)isoxazol-4-yl)methoxy)-2-azabicyclo[2.2.1]heptan-2-yl)-4-fluorobenzo[d]thiazole-6-carboxylic acid]", "values": [
      {"measurement": "pEC50", "setting": "[1]", "result": ">4.5"},
      {"measurement": "EC50", "setting": "[2]; [4]", "result": "< 31.6", "unit": "nM"}
    ]},
    {"molecule": "O=C(NCCS(=O)(=O)C1CC1)c1ccc(N2C[C@@H]3C[C@H]2C[C@H]3OCc2c(-c3c(Cl)cccc3Cl)noc2C2CC2)cc1F", "note": "[Compound I-171, N-[2-(cyclopropanesulfonyl)ethyl]-4-[(1S,4S,5R)-5-{[5-cyclopropyl-3-(2,6-dichlorophenyl)-1,2-oxazol-4-yl]methoxy}-2-azabicyclo[2.2.1]heptan-2-yl]-2-fluorobenzamide]", "values": [
      {"measurement": "pEC50", "setting": "[1]", "result": 8.6},
      {"measurement": "Emax", "setting": "[1]; [3]", "result": 147, "unit": "%"},
      {"measurement": "Emax", "setting": "[2]; [3]", "result": 104, "unit": "%"},
      {"measurement": "EC50", "setting": "[2]; [4]", "result": 0.794, "unit": "nM"}
    ]},
    {"molecule": "CCCCCCCCS(=O)(=O)NC(=O)c1ccc(N2C[C@@H]3C[C@H]2C[C@H]3OCc2c(-c3c(Cl)cccc3Cl)noc2C2CC2)c(F)c1", "note": "[Compound I-192, 4-((1S,4S,5R)-5-((5-cyclopropyl-3-(2,6-dichlorophenyl)isoxazol-4-yl)methoxy)-2-azabicyclo[2.2.1]heptan-2-yl)-3-fluoro-N-(octylsulfonyl)benzamide]", "values": [
      {"measurement": "pEC50", "setting": "[1]", "result": 7.9},
      {"measurement": "Emax", "setting": "[1]; [3]", "result": 152, "unit": "%"},
      {"measurement": "Emax", "setting": "[2]; [3]", "result": 106, "unit": "%"},
      {"measurement": "EC50", "setting": "[2]; [4]", "result": 0.2, "unit": "nM"}
    ]},
    {"molecule": "O=C(O)Cc1ccc(N2C[C@@H]3C[C@H]2C[C@H]3OCc2c(-c3c(Cl)cccc3Cl)noc2C2CC2)c(F)c1", "note": "[Compound I-153, 2-{4-[(1S,4S,5R)-5-{[5-cyclopropyl-3-(2,6-dichlorophenyl)-1,2-oxazol-4-yl]methoxy}-2-azabicyclo[2.2.1]heptan-2-yl]-3-fluorophenyl}acetic Acid]", "values": [
      {"measurement": "pEC50", "setting": "[1]", "result": 9.2},
      {"measurement": "Emax", "setting": "[1]; [3]", "result": 130, "unit": "%"},
      {"measurement": "Emax", "setting": "[2]; [3]", "result": 100, "unit": "%"},
      {"measurement": "EC50", "setting": "[2]; [4]", "result": 10, "unit": "nM"}
    ]},
    {"molecule": "O=C(O)c1cc(OC2CC2)c2nc(N3C(=O)[C@@H]4C[C@H]3C[C@H]4OCc3c(-c4c(Cl)cccc4Cl)noc3C3CC3)sc2c1", "note": "[Compound I-297, 4-cyclopropoxy-2-((1S,4R,5R)-5-((5-cyclopropyl-3-(2,6-dichlorophenyl)isoxazol-4-yl)methoxy)-3-oxo-2-azabicyclo[2.2.1]heptan-2-yl)benzo[d]thiazole-6-carboxylic acid]", "values": [
      {"measurement": "pEC50", "setting": "[1]", "result": 9},
      {"measurement": "Emax", "setting": "[1]; [3]", "result": 77, "unit": "%"},
      {"measurement": "Emax", "setting": "[2]; [3]", "result": 110, "unit": "%"},
      {"measurement": "EC50", "setting": "[2]; [4]", "result": 0.316, "unit": "nM"}
    ]},
    {"molecule": "O=C(NS(=O)(=O)C1CCOC1)c1ccc(N2C(=O)[C@@H]3C[C@H]2C[C@H]3OCc2c(-c3c(Cl)cccc3Cl)noc2C2CC2)cc1F", "note": "(stereo partly drawn) [Compound I-334, 4-((1S,4R,5R)-5-((5-cyclopropyl-3-(2,6-dichlorophenyl)isoxazol-4-yl)methoxy)-3-oxo-2-azabicyclo[2.2.1]heptan-2-yl)-2-fluoro-N-((tetrahydrofuran-3-yl)sulfonyl)benzamide]", "values": [
      {"measurement": "pEC50", "setting": "[1]", "result": 9},
      {"measurement": "Emax", "setting": "[1]; [3]", "result": 180, "unit": "%"},
      {"measurement": "Emax", "setting": "[2]; [3]", "result": 104, "unit": "%"},
      {"measurement": "EC50", "setting": "[2]; [4]", "result": 1, "unit": "nM"}
    ]},
    {"molecule": "N#Cc1c(F)cc(N2C[C@@H]3C[C@H]2C[C@H]3OCc2c(-c3c(Cl)cccc3Cl)noc2C2CC2)cc1F", "note": "[Compound I-133, 4-[(1S,4S,5R)-5-{[5-cyclopropyl-3-(2,6-dichlorophenyl)-1,2-oxazol-4-yl]methoxy}-2-azabicyclo[2.2.1]heptan-2-yl]-2,6-difluorobenzonitrile]", "values": [
      {"measurement": "pEC50", "setting": "[1]", "result": 7.4},
      {"measurement": "Emax", "setting": "[1]; [3]", "result": 79, "unit": "%"},
      {"measurement": "Emax", "setting": "[2]; [3]", "result": 106, "unit": "%"},
      {"measurement": "EC50", "setting": "[2]; [4]", "result": "< 39.8", "unit": "nM"}
    ]},
    {"molecule": "N#Cc1cc(N2C[C@@H]3C[C@H]2C[C@H]3OCc2c(-c3c(Cl)cccc3Cl)noc2C2CC2)ccc1C(=O)O", "note": "[Compound I-101, 2-Cyano-4-[(1S,4S,5R)-5-{[5-cyclopropyl-3-(2,6-dichlorophenyl)-1,2-oxazol-4-yl]methoxy}-2-azabicyclo[2.2.1]heptan-2-yl]benzoic Acid]", "values": [
      {"measurement": "pEC50", "setting": "[1]", "result": 9.8},
      {"measurement": "Emax", "setting": "[1]; [3]", "result": 137, "unit": "%"},
      {"measurement": "Emax", "setting": "[2]; [3]", "result": 113, "unit": "%"},
      {"measurement": "EC50", "setting": "[2]; [4]", "result": 1, "unit": "nM"}
    ]},
    {"molecule": "CC(=O)OCCS(=O)(=O)NC(=O)c1ccc(N2C[C@@H]3C[C@H]2C[C@H]3OCc2c(-c3c(Cl)cccc3Cl)noc2C2CC2)cc1", "note": "[Compound I-211, 2-[({4-[(1S,4S,5R)-5-{[5-cyclopropyl-3-(2,6-dichlorophenyl)-1,2-oxazol-4-yl]methoxy}-2-azabicyclo[2.2.1]heptan-2-yl]phenyl}formamido)sulfonyl]ethyl Acetate]", "values": [
      {"measurement": "pEC50", "setting": "[1]", "result": 8.4},
      {"measurement": "Emax", "setting": "[1]; [3]", "result": 152, "unit": "%"},
      {"measurement": "Emax", "setting": "[2]; [3]", "result": 105, "unit": "%"},
      {"measurement": "EC50", "setting": "[2]; [4]", "result": 1, "unit": "nM"}
    ]},
    {"molecule": "O=C(O)c1cc([C@@H]2C[C@H]3CC[C@@H](C2)O3)c2nc(N3C[C@@H]4C[C@H]3C[C@H]4OCc3c(-c4c(Cl)cccc4Cl)noc3C3CC3)sc2c1", "note": "[Compound I-256, 2-[(1S,4S,5R)-5-{[5-cyclopropyl-3-(2,6-dichlorophenyl)-1,2-oxazol-4-yl]methoxy}-2-azabicyclo[2.2.1]heptan-2-yl]-4-[(1R,3S,5S)-8-oxabicyclo[3.2.1]octan-3-yl]-1,3-benzothiazole-6-carboxylic Acid]", "values": [
      {"measurement": "pEC50", "setting": "[1]", "result": 8.4},
      {"measurement": "% Efficacy", "setting": "[1]; [3]", "result": 157, "unit": "%"},
      {"measurement": "pEC50", "setting": "[2]; [4]", "result": 9.7},
      {"measurement": "% Efficacy", "setting": "[2]; [3]", "result": 107, "unit": "%"}
    ]},
    {"molecule": "O=C(O)c1ccc(N2C(=O)[C@@H]3C[C@H]2C[C@H]3OCc2c(-c3c(Cl)cccc3Cl)noc2C2CC2)cc1", "note": "[Compound I-244, 4-[(1S,4R,5R)-5-{[5-cyclopropyl-3-(2,6-dichlorophenyl)-1,2-oxazol-4-yl]methoxy}-3-oxo-2-azabicyclo[2.2.1]heptan-2-yl]benzoic Acid]", "values": [
      {"measurement": "pEC50", "setting": "[1]", "result": 8.4},
      {"measurement": "Emax", "setting": "[1]; [3]", "result": 130, "unit": "%"},
      {"measurement": "Emax", "setting": "[2]; [3]", "result": 102, "unit": "%"},
      {"measurement": "EC50", "setting": "[2]; [4]", "result": 2, "unit": "nM"}
    ]},
    {"molecule": "O=C(NS(=O)(=O)CC1CCOC1)c1ccc(N2C(=O)[C@@H]3C[C@H]2C[C@H]3OCc2c(-c3c(Cl)cccc3Cl)noc2C2CC2)cc1F", "note": "(stereo partly drawn) [Compound I-335, 4-((1S,4R,5R)-5-((5-cyclopropyl-3-(2,6-dichlorophenyl)isoxazol-4-yl)methoxy)-3-oxo-2-azabicyclo[2.2.1]heptan-2-yl)-2-fluoro-N-(((tetrahydrofuran-3-yl)methyl)sulfonyl)benzamide]", "values": [
      {"measurement": "pEC50", "setting": "[1]", "result": 8.8},
      {"measurement": "Emax", "setting": "[1]; [3]", "result": 172, "unit": "%"},
      {"measurement": "Emax", "setting": "[2]; [3]", "result": 108, "unit": "%"},
      {"measurement": "EC50", "setting": "[2]; [4]", "result": 1, "unit": "nM"}
    ]}
  ]
}
